# “Also recorded” adds a separate entry of the source.
# How the values were obtained:
# CYP26A1 mRNA [1] = test: hepatic CYP26A1 mRNA in DIO mice; format: in vivo; details: mouse liver
# Experimental: (§1) Quantitative PCR (Q-PCR) from in vitro cell culture experiments used total RNA purified using RNeasy Kits (Qiagen). For liver tissue samples, total RNA was isolated using Trizol (Invitrogen) and prepared for RNAseq (mouse liver DMSO and NCT, N=3). cDNA was amplified using 3 μg of total RNA using qScript cDNA SuperMix (Quanta BioSciences, Beverly, Mass., USA). QPCR analysis was performed using SYBR® Select Master Mix (Applied Biosystems) and ABI 7900HT (Applied Biosystems, Thermo Fisher Scientific). The Ct values of mRNA expression were then normalized to the 18 s rRNA values and are expressed as fold change over samples from mice fed normal chow for in vivo experiments or DMSO controls for cell culture experiments.
# For dose response experiments, mice were injected intraperitoneally with 10% DMSO as vehicle control or 4 different doses of NCT (30, 60, 120 and 240 mg/kg of body weight) dissolved in 10% DMSO. Mice received 2 doses per day with a 5 h interval between injections for 3 days. To test the effect of NCT (Sundia MediTech Company, Ltd., Custom synthesis), 200 mg/kg was injected IP bid for 14 days. On day 15, mice received a final dose of NCT followed by IP injection with 3 g/kg dextrose. One h later, blood samples were collected and mice were euthanized using pentobarbital. Total mouse, liver and epididymal fat pad weights were measured. […]
# p62 = p62 Western blot in T6PNE cells; format: cell-based, human; details: NCT 10 μM, RA 10 μM, fenretinide
# Experimental: Whole-cell extracts were prepared by incubation in RIPA buffer (Invitrogen) containing protease inhibitors (Calbiochem, San Diego, Calif.). Protein ([…]) was separated on 12% or 16% Tri-Glycine gels (Invitrogen) and transferred to Immobilon P membrane (0.2 μm pore, Millipore). After 1 h in phosphate-buffered saline-Tween (PBST) with 3% milk, membrane was incubated with antibodies to HNF4α (mouse, Novus, 1:1000), LC3B (rabbit, Novus, 1:500), p62 (SQSTM1, mouse, Santa Cruz, 1:1000) or β-actin (mouse, Santa Cruz, 1:2000), followed by secondary antibody conjugated to horseradish peroxidase (1:5000, Jackson Immune).
# C57BL/6J DIO mice = test: DIO mice injected IP for 14 days (hepatic steatosis); format: in vivo; details: for serum free fatty acids (FFA): after glucose challenge; for hepatic stored fat by Oil Red O staining: liver sections; for hepatic stored fat by Oil Red O staining / alkaline phosphatase (ALP) / epididymal fat pad weight / hepatic triglyceride content / liver weight / hepatic steatosis: 200 mg/kg; for alkaline phosphatase (ALP) / epididymal fat pad weight / hepatic triglyceride content / liver weight: vs DMSO; for hepatic steatosis: two weeks; for toxicity / general condition: mice, IP, up to the highest dose administered
# Experimental: Compounds were injected IP into diet-induced obese mice at a dose of 200 mg/kg bid for two weeks. At that point, mice were sacrificed and organs were harvested for analysis. To test the hypothesis that HNF4a controls hepatic fat storage, N-trans-caffeoyltyramine was administered to C57BL/6J DIO mice maintained on a 60% fat calorie diet. Based upon PK studies with N-trans-caffeoyltyramine, IP injection was chosen for two week for these proof of concept studies. […] It was observed that N-trans-caffeoyltyramine was stimulating lipophagy (FIG. 1A).
# Slides containing frozen liver tissue sections from mice were air dried for 10-20 min followed by rehydration in distilled water. Sections were immersed in absolute propylene glycol (Cat #151957, MP Biomedicals, LLC, USA) for 2 min followed by 0.5% in oil red O solution (Cat #K043, Poly Scientific R&D, USA) for 2 h. Slides were then differentiated in 85% propylene glycol solution, washed with dH2O for 2 h, and mounted using glycerin jelly mounting medium. All slides were scanned at a magnification of 20× using the Aperio Scanscope FL system (Aperio Technologies Inc., Vista, Calif., USA). The liver area stained with oil red O was measured using image J software as described, with some modifications. Oil red O-stained liver images were opened in Image J software. Using the Analyze>Set Scale command, the scale bar of the images was set to 200 um. RGB images were then converted into gray scale images using the Image>Type>RGB Stack command and were split into red, blue and green channels. Using the Image>Adjust>Threshold command, the threshold was manually set to highlight the oil red O-stained lipid droplets in the green channel. The same threshold was used for all the images in all treatment groups and the % oil red O-stained area was obtained using the Analyze→Measure tool command. Fold change was calculated by normalizing the values to images from mice fed normal chow.
# 12-week-old C57BL/6 J DIO male mice (cat #380050) were purchased from Jackson Laboratory and were fed with high fat diet containing 60 kcal % fat (Research Diets cat #D12492). Mice were maintained in a 12-h light/day cycle. After 2 weeks of acclimation, mice with similar body weights were randomly assigned to treatment or control groups.
# For dose response experiments, mice were injected intraperitoneally with 10% DMSO as vehicle control or 4 different doses of NCT (30, 60, 120 and 240 mg/kg of body weight) dissolved in 10% DMSO. Mice received 2 doses per day with a 5 h interval between injections for 3 days. To test the effect of NCT (Sundia MediTech Company, Ltd., Custom synthesis), 200 mg/kg was injected IP bid for 14 days. On day 15, mice received a final dose of NCT followed by IP injection with 3 g/kg dextrose. One h later, blood samples were collected and mice were euthanized using pentobarbital. Total mouse, liver and epididymal fat pad weights were measured. Dissected liver samples were washed in cold PBS, cut into small pieces and distributed for analyses. For RNA isolation and ELISA, liver samples were snap frozen using liquid nitrogen and stored at −80° C. For histomorphometry and immunofluorescence analysis, liver samples were fixed in 4% of cold PFA and processed for histology. All animal experiments were approved by the Institutional Animal Care and Use Committee (IACUC) of the Sanford Burnham Prebys Medical Discovery Institute in accordance with national regulations.
# The serum FFA level was measured using the Free Fatty Acid Quantification Colorimetric/Fluorometric Kit (Cat #K612, BioVision, USA). Fold change was calculated by normalizing to values from mice fed normal chow.
# Serum and liver TG level was measured using the Triglyceride calorimetric Assay Kit (Cat #10010303, Cayman Chemicals, USA). Fold change was calculated by normalizing the values from normal chow mice. […]
# CYP26A1 mRNA [2] = test: CYP26A1 mRNA in T6PNE cells; format: cell-based, human; details: 2 days, 0.25 mM palmitate, NCT 10 μM, 4-OH-RA 20 μM
# Experimental: as §1
# SPNS2 mRNA = test: SPNS2 qPCR in mouse liver; format: in vivo
# Experimental: as §1
# [3] = DIO mice, 200 mg/kg bid IP, 14 days
# [4] = DIO mice, 200 mg/kg bid IP, 14 days, listed as N-trans-caffeoyltyramine
smiles,measurement,setting,value
"O=C(/C=C/c1ccc(O)c(O)c1)NCCc1ccc(O)cc1 [NCT, N-trans-caffeoyltyramine]",hepatic CYP26A1 mRNA,CYP26A1 mRNA [1],induced CYP26a1
same,p62 protein expression normalized to actin,p62,induced increases
same,color of the liver,C57BL/6J DIO mice; [3],shift in the color of the liver from yellow to red
same,other markers of liver function in the VetScan panel,C57BL/6J DIO mice; [3],no change
same,serum free fatty acids (FFA),C57BL/6J DIO mice; [3],induced an increase in free fatty acids
same,serum free fatty acids (FFA),C57BL/6J DIO mice; [4],induced an increase in free fatty acids; also recorded: Serum FFA were increased
same,hepatic stored fat by Oil Red O staining,C57BL/6J DIO mice; [3],decrease in stored fat by Oil Red O staining
same,hepatic stored fat by Oil Red O staining,C57BL/6J DIO mice; [4],decrease in stored fat by Oil Red O staining; also recorded: significantly reduced the Oil Red O
same,alkaline phosphatase (ALP),C57BL/6J DIO mice; [3],decreased ALP; also recorded: decrease in ALP
same,epididymal fat pad weight,C57BL/6J DIO mice; [3],increase in epididymal fat pad mass; also recorded: increased weight
same,hepatic triglyceride content,C57BL/6J DIO mice; [3],reduction in the hepatic triglyceride content
same,liver weight,C57BL/6J DIO mice; [3],weighed less than those of the control mice
same,alkaline phosphatase (ALP),C57BL/6J DIO mice; [4],ALP was decreased
same,epididymal fat pad weight,C57BL/6J DIO mice; [4],increase in epididymal fat pad mass; also recorded: increase in epididymal fat pad weight
same,hepatic triglyceride content,C57BL/6J DIO mice; [4],hepatic triglyceride content was decreased; also recorded: significantly reduced
same,liver weight,C57BL/6J DIO mice; [4],weighed less than those of the control mice; also recorded: decreased liver weight
same,body weight gain,"C57BL/6J DIO mice; DIO mice, 200 mg/kg bid IP, 14 days, vs control",gained weight to a similar degree
same,hepatic steatosis,"C57BL/6J DIO mice; DIO mice, 200 mg/kg bid IP",reversed hepatic steatosis; also recorded: reversal of hepatic steatosis; also recorded: reduction of steatosis
same,hepatic steatosis,"C57BL/6J DIO mice; DIO mice, 200 mg/kg bid IP, listed as N-trans-caffeoyltyramine",reverses hepatic steatosis
same,serum TG at week 1,"C57BL/6J DIO mice; DIO mice, 200 mg/kg bid IP, week 1",increased
same,serum TG at week 2,"C57BL/6J DIO mice; DIO mice, 200 mg/kg bid IP, week 2, end of the study",not at week 2
same,toxicity / general condition,C57BL/6J DIO mice,remained healthy and active; also recorded: unable to establish a maximum tolerated dose because of the lack of toxicity; also recorded: completely nontoxic at the highest dose administered
same,toxicity / general condition,C57BL/6J DIO mice; listed as N-trans-caffeoyltyramine,remained healthy and active
same,CYP26A1 mRNA level,CYP26A1 mRNA [2],induced CYP26a1
same,SPNS2 expression in mouse liver,SPNS2 mRNA,did not induce a change in SPNS2 expression; also recorded: not mouse liver
